Assay results from paper PMC4958397, “Synthesis, antibacterial and antiproliferative potential of some new 1-pyridinecarbonyl-4-substituted thiosemicarbazide derivatives” (Medicinal Chemistry Research, 2016).
Values after ≈ are worked out from the molar mass of the structure shown.

Experiments:
[1] = tested on: Escherichia coli ATCC 25922; experiment: Disk diffusion, zone of bacterial growth inhibition; format: cell-based; conditions: Escherichia coli, ATCC25922, 100 μg of compound, read-out: Zone of bacterial growth inhibition, E.c
From the text: (§1) Panel reference strains of bacteria from the American Type Culture Collection or Polish Collection of Microorganisms, including aerobic Gram-positive bacteria: Staphylococcus aureus ATCC 25923 and Staphylococcus epidermidis ATCC 12228, and aerobic Gram-negative bacteria: Escherichia coli ATCC 25922 and Pseudomonas aeruginosa ATCC 9027, as well as microaerobic Gram-positive bacteria: Lactobacillus spp., Lactobacillus acidophilus PCM 2105, Streptococcus mutans PCM 2502 and Streptococcus sanguinis PCM 2335, were used. Microbial suspensions with an optical density of 0.5 McFarland standard at 1.5 × 10^8 CFU/mL (CFU: colony forming unit) were prepared in sterile 0.9 % NaCl. Mueller–Hinton (M–H) broth and M–H agar (Oxoid Ltd., England) for aerobic strains, and MRS Broth Lactobacillus, MRS Agar Lactobacillus (BioMaxima S.A., Poland), BHI Broth and BHI agar (BioMaxima S.A., Poland) for microaerobic strains were used in the microbial tests.
(§2) The preliminary antibacterial activity of the carbazide derivatives against human pathogenic Gram-positive, Gram-negative aerobic and microaerobic bacteria was evaluated by measuring the zones of inhibition in the disk diffusion method (Murray et al., [1995]). Each compound (100 µg) was placed on Petri plates with agar medium (previously inoculated with 0.5 McFarland standards with the tested bacterial strains). After 18 h of incubation at 37 °C (for aerobic strains) or 40 h at 35 °C (for microaerobic strains), zones of microbial growth produced around the tested substances were measured and recorded as the diameters of inhibition.

[2] = tested on: Lactobacillus acidophilus PCM 210; experiment: as above; format: cell-based; conditions: Lactobacillus acidophilus, PCM210, 100 μg of compound, read-out: Zone of bacterial growth inhibition, L.a
From the text: as §1, §2

Lactobacillus spp. = experiment: as above; format: cell-based; conditions: Lactobacillus, 100 μg of compound, read-out: Zone of bacterial growth inhibition, L.spp.
From the text: as §1, §2

[3] = tested on: Pseudomonas aeruginosa ATCC 9027; experiment: as above; format: cell-based; conditions: Pseudomonas aeruginosa, ATCC9027, 100 μg of compound, read-out: Zone of bacterial growth inhibition, P.a
From the text: as §1, §2

[4] = tested on: Staphylococcus aureus ATCC 25923; experiment: as above; format: cell-based; conditions: Staphylococcus aureus, ATCC25923, 100 μg of compound, read-out: Zone of bacterial growth inhibition, S.a
From the text: as §1, §2

[5] = tested on: Staphylococcus epidermidis ATCC 12228; experiment: as above; format: cell-based; conditions: Staphylococcus epidermidis, ATCC12228, 100 μg of compound, read-out: Zone of bacterial growth inhibition, S.e
From the text: as §1, §2

[6] = tested on: Streptococcus mutans PCM 2502; experiment: as above; format: cell-based; conditions: Streptococcus mutans, PCM2502, 100 μg of compound, read-out: Zone of bacterial growth inhibition, S.m
From the text: as §1, §2

[7] = tested on: Streptococcus sanguinis PCM 2335; experiment: as above; format: cell-based; conditions: Streptococcus sanguinis, PCM2335, 100 μg of compound, read-out: Zone of bacterial growth inhibition, S.s
From the text: as §1, §2

[8] = tested on: Escherichia coli ATCC 25922; experiment: Broth microdilution MIC; format: cell-based; conditions: NA means inactive; for MIC: Escherichia coli, ATCC25922, broth microdilution, read-out: Minimum inhibitory concentration (MIC), E. coli; for Minimum inhibitory concentration (MIC), E. coli: broth microdilution
From the text: as §1
(§3) A broth microdilution method was used to evaluate the minimum inhibition concentration (MIC) according to the CLSI document (CLSI performance standards for antimicrobial susceptibility testing, 2008, Eighteenth International Supplement, CLSI document M7-MIC, Clinical Laboratory Standards Institute, Wayne) with some modifications. […] A serial doubling dilution of the compounds was prepared in 96-well plates (200 μL per well). A suitable medium (M-H Broth, MRS Broth Lactobacillus, BHI Broth) was used as a diluent. The final concentrations of derivatives were 1000–0.015 μg/mL. Finally, 2 μL of inoculum of the tested bacterial strain (1.5 × 10^8 CFU/mL) was added to each well. The tests were performed either at 36 °C for 18 h (aerobic strains) or at 40 h (microaerobic strains). After incubation, the panel was digitally analyzed at 600 nm using the microplate reader Bio Tech Synergy (USA) with a dedicated software system. The growth intensity in each well was compared with the negative and positive controls.

[9] = tested on: Pseudomonas aeruginosa ATCC 9027; experiment: Broth microdilution MIC; format: cell-based; conditions: Pseudomonas aeruginosa, ATCC9027, NA means inactive, read-out: Minimum inhibitory concentration (MIC), P. aeruginosa
From the text: as §1, §3

[10] = tested on: Staphylococcus aureus ATCC 25923; experiment: Broth microdilution MIC; format: cell-based; conditions: Staphylococcus aureus, ATCC25923, NA means inactive, read-out: Minimum inhibitory concentration (MIC), S. aureus
From the text: as §1, §3

[11] = tested on: Staphylococcus epidermidis ATCC 12228; experiment: Broth microdilution MIC; format: cell-based; conditions: Staphylococcus epidermidis, ATCC12228, NA means inactive, read-out: Minimum inhibitory concentration (MIC), S. epidermidis
From the text: as §1, §3

[12] = tested on: Streptococcus mutans PCM 2502; experiment: Broth microdilution MIC; format: cell-based; conditions: Streptococcus mutans, PCM2502, NA means inactive, read-out: Minimum inhibitory concentration (MIC), S. mutans
From the text: as §1, §3

[13] = tested on: Streptococcus sanguinis PCM 2335; experiment: Broth microdilution MIC; format: cell-based; conditions: Streptococcus sanguinis, PCM2335, NA means inactive, read-out: Minimum inhibitory concentration (MIC), S. sanguinis
From the text: as §1, §3

[14] = tested on: Lactobacillus acidophilus PCM 210; experiment: Broth microdilution MIC; format: cell-based; conditions: for MIC: Lactobacillus acidophilus, PCM210, NA means inactive, read-out: Minimum inhibitory concentration (MIC), L. acidophilus
[15] = tested on: aerobic Gram-positive bacteria; experiment: Broth microdilution MIC, summary in text; format: cell-based; conditions: range over compounds and strains; read-out: MIC against aerobic Gram-positive bacteria
From the text: as §1, §3

| SMILES | MIC [8] [µg/mL] | MIC [9] [µg/mL] | MIC [10] [µg/mL] | MIC [11] [µg/mL] | MIC [12] [µg/mL] | MIC [13] [µg/mL] | MIC [14] [µg/mL] | melting point [°C] | Minimum inhibitory concentration (MIC), E. coli [8] [µg/mL] | MIC [15] [µg/mL] | Minimum inhibitory concentration (MIC), L. acidophilus ([14]; NA means inactive) | zone of inhibition at 100 µg/disc [1] [mm] | zone of inhibition at 100 µg/disc [2] [mm] | zone of inhibition at 100 µg/disc (Lactobacillus spp.) [mm] | zone of inhibition at 100 µg/disc [3] [mm] | zone of inhibition at 100 µg/disc [4] [mm] | zone of inhibition at 100 µg/disc [5] [mm] | zone of inhibition at 100 µg/disc [6] [mm] | zone of inhibition at 100 µg/disc [7] [mm] |
| --- | --- | --- | --- | --- | --- | --- | --- | --- | --- | --- | --- | --- | --- | --- | --- | --- | --- | --- | --- |
| CCOc1ccc2nc3cc(N)ccc3c(N)c2c1 [Ethacridine lactate, ethacridine lactate, reference compound] | 15.6 | 125 | 31.2 | 31.2 | 62.5 | 31.2 | 31.2 |  |  |  |  | 12 | 15 | 10 | 4 | 10 | 8 | 24 | 24 |
| CSc1ccc(NC(=S)NNC(=O)c2cccnc2)cc1 [Compound 6, 4-(4-Methylthiophenyl)-1-(pyridin-3-yl)carbonylthiosemicarbazide] | 62 to 125 | > 1000 | 250 | 500 | 250 | 15.6 | > 1000 | 176 to 177 | 62.5 | 15.6 to 500 | did not limit the growth | 9 | 0 | 0 | 0 | 10 | 9 | 11 | 19 |
| O=C(NNC(=S)Nc1ccccc1Cl)c1ccccn1 [Compound 2, 4-(2-Chlorophenyl)-1-(pyridin-2-yl)carbonylthiosemicarbazide] | 62 to 125 | 1000 | 31.2 | 31.2 | 250 | 250 | 62.5 (≈ 204 µM) | 172 to 174 | 62.5 | 15.6 to 500 |  | 20 | 16 | 24 | 4 | 17 | 25 | 24 | 0 |

Further lines, with some results ahead:

| MIC [8] [µg/mL] | MIC [9] [µg/mL] | MIC [10] [µg/mL] | MIC [11] [µg/mL] | MIC [12] [µg/mL] | MIC [13] [µg/mL] | MIC [14] [µg/mL] | melting point [°C] | Minimum inhibitory concentration (MIC), E. coli [8] [µg/mL] | MIC [15] [µg/mL] | Minimum inhibitory concentration (MIC), L. acidophilus ([14]; NA means inactive) | SMILES | zone of inhibition at 100 µg/disc [1] [mm] | zone of inhibition at 100 µg/disc [2] [mm] | zone of inhibition at 100 µg/disc (Lactobacillus spp.) [mm] | zone of inhibition at 100 µg/disc [3] [mm] | zone of inhibition at 100 µg/disc [4] [mm] | zone of inhibition at 100 µg/disc [5] [mm] | zone of inhibition at 100 µg/disc [6] [mm] | zone of inhibition at 100 µg/disc [7] [mm] |
| --- | --- | --- | --- | --- | --- | --- | --- | --- | --- | --- | --- | --- | --- | --- | --- | --- | --- | --- | --- |
| 0.488 | 15.6 | 0.488 | 0.488 | 0.488 | 7.81 | 0.976 |  |  |  |  | [H]/N=C(\N/C(=N/[H])NCCCCCCNC(=N)NC(=N)Nc1ccc(Cl)cc1)Nc1ccc(Cl)cc1 [CLX, chlorhexidine digluconate, reference compound] | 15 | 24 | 24 | 16 | 23 | 23 | 26 | 29 |
| > 1000 | > 1000 | > 1000 | 500 | 500 | 1000 | > 1000 | 196 to 197 |  |  |  | O=C(NNC(=S)Nc1ccc(Cl)cc1Cl)c1cccnc1 [Compound 7, 4-(2,4-Dichlorophenyl)-1-(pyridin-3-yl)carbonylthiosemicarbazide] | 9 | 5 | 7 | 0 | 0 | 10 | 24 | 10 |
| 62 to 125 | 500 | 31.2 | 31.2 | 31.2 | 7.81 | 31.2 (≈ 91.6 µM) | 158 to 160 | 62.5 | 15.6 to 500 |  | O=C(NNC(=S)Nc1ccc(Cl)cc1Cl)c1ccccn1 [Compound 4, 4-(2,4-Dichlorophenyl)-1-(pyridin-2-yl)carbonylthiosemicarbazide] | 20 | 20 | 24 | 14 | 22 | 27 | 35 | 25 |
